Laboratory results: publication PMC9147975, “New Antibacterial Chloro-Containing Polyketides from the Alga-Derived Fungus Asteromyces cruciatus KMM 4696” (Journal of Fungi, 2022)
“Also recorded” adds a separate entry of the source.

Experiments:
[1] = target: T1, sortase A from Staphylococcus aureus (Staphylococcus aureus, UniProt Q2FV99); assay: Sortase activity inhibition assay (SensoLyte 520 Sortase A Activity Assay Kit); format: biochemical; details: 50 μM; for decrease of sortase A activity / effect on sortase A enzymatic activity (in words): after 10 min of incubation with the substrate
T1 construct: purchased AnaSpec AS-72229
T1 sequence (Q2FV99 whole entry): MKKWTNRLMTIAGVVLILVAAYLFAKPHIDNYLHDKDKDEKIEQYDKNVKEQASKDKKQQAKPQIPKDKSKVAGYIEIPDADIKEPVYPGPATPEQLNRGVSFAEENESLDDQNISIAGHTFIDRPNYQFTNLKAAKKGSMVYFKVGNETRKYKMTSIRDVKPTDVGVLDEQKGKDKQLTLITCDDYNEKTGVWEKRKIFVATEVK
Description: The enzymatic activity of sortase A from Staphylococcus aureus was determined using SensoLyte 520 Sortase A Activity Assay Kit * Fluorimetric * (AnaSpec AS-72229, AnaSpec, San Jose, CA, USA) in accordance with the manufacturer’s instructions. […] DMSO at a concentration of 0.8% was used as a control. PCMB (4-(hydroxymercuri)benzoic acid) was used as sortase A enzyme activity inhibitor. Fluorescence was measured with a plate reader PHERAStar FS (BMG Labtech, Offenburg, Germany) for 60 min, with a time interval of 5 min. The data were processed with MARS Data Analysis v. 3.01R2 (BMG Labtech, Offenburg, Germany). The results were presented as relative fluorescent units (RFUs) and percentage of the control data, calculated using STATISTICA 10.0 software.

[2] = system: biofilm formation of Staphylococcus aureus; assay: Biofilm formation, crystal violet biofilm assay; format: cell-based; details: for formation of biofilms (in words): 100 μM; for inhibition at 100 µM: Staphylococcus aureus
Description: The inhibition of the reducing biofilm formation and growth was assessed using the crystal violet biofilm assay as described. Mueller Hinton broth was inoculated with 10^9 CFU/mL of S. aureus overnight cultures. A total of 90 µL of this cell suspension was then dispensed into 96-well microtiter plates containing 10 µL of different concentrations of compounds 1–6. After 24 h growth at 37 °C the plates were washed with PBS to remove unbound cells. Next, the wells were stained with 0.1% crystal violet solution for 10 min at 37 °C. At the completion of the incubation, plates were washed 3 times with PBS and dried. Then, the crystal violet dye from the biofilm was solubilized with 100 µL of ethanol. A total of 100 µL of this solution was then moved to a new microtiter plate for absorbance measurement at λ = 570 nm. The results were reported as percent inhibition normalized to the wild-type control.

[3] = system: Staphylococcus aureus ATCC 21027; assay: Antimicrobial activity, bacterial growth (OD620); format: cell-based; details: for inhibition at 100 µM: read-out: inhibition of S. aureus growth; for change of antimicrobial activity on decrease of concentration: decrease of concentration from 100 μM (two-fold for compound 6)
Description: The antibacterial activity of compounds 1–6 was evaluated as described previously. The bacterial culture of Staphylococcus aureus ATCC 21027 (Collection of Marine Microorganisms PIBOC FEBRAS) was cultured in a Petri dish at 37 °C for 24 h on solid medium Mueller Hinton broth with agar—16.0 g/L. The assays were performed in 96-well microplates in appropriate Mueller Hinton broth. Each well contained 90 µL of bacterial suspension (10^9 CFU/mL). Then, 10 µL diluted at concentrations from 1.5 µM to 100.0 µM using two-fold dilution was added to compounds 1–6 (DMSO concentration < 1%). Culture plates were incubated overnight at 37 °C, and the OD620 was measured using a Multiskan Spectrum spectrophotometer (Thermo Labsystems Inc., Beverly, MA, USA). Gentamicin was used as a positive control in concentration 1 mg/mL; 1% DMSO solution in PBS as a negative.

[4] = system: human keratinocytes HaCaT co-cultivated with S. aureus; assay: Co-cultivation of HaCaT cells with S. aureus, LDH release; format: cell-based; details: 10 μM, 48 h co-cultivation
Description: Co-cultivation of HaCaT cells with S. aureus was carried out as described. HaCaT cells at a concentration of 1.5×10^4 cells per well were seeded in 96-well plates for 24 h. Then, culture medium in each well was changed with S. aureus suspension (10^2 CFU/mL) in full DMEM medium. Fresh DMEM medium without S. aureus suspension was added in other wells as needed. Compounds 1–6 at a concentration of 10 μM were added in wells after 1 h. HaCaT cells and S. aureus were cultured at 37 °C in a humidified atmosphere with 5% (v/v) CO2 for 48 h. After incubation, the plate was centrifuged at 250× g for 10 min and 50 µL of supernatant from each well was transferred into the corresponding wells of an optically clear 96-well plate. An equal volume of the reaction mixture (50 µL) from LDH Cytotoxicity Assay Kit (Abcam, Cambridge, UK) was added to each well and incubated for up to 30 min at room temperature. The absorbance of all samples was measured at λ = 450 nm using a Multiskan FC microplate photometer (Thermo Scientific, Waltham, MA, USA) and expressed in optical units (o.u.).

[5] = system: Staphylococcus aureus ATCC 21027; design: method as in PMID 34677452; details: cited from earlier work
[6] = target: T1, sortase A from Staphylococcus aureus; details: cited from earlier work
[7] = system: human keratinocytes HaCaT co-cultivated with S. aureus; design: method as in PMID 34677452; details: cited from earlier work
[8] = system: biofilm formation of Staphylococcus aureus; design: method as in PMID 34677452; details: cited from earlier work
[9] = Staphylococcus aureus, ATCC21027, 100 μM

Compound: C=C(C)C#C[C@@H]1C[C@H](O)[C@H](O)[C@@H](Cl)[C@@H]1O (relative stereo) [Compound 3, Acrucipentyn C]
- time-dependent inhibitory effect on sortase A activity ([1]; 60 min data acquisition): detected throughout the entire period of data acquisition
- decrease of sortase A activity [1]: 30%
- concentration down to which a high level of inhibition of biofilm formation is kept [2]: 12.5 µM
- formation of biofilms (in words) [2]: almost absent
- inhibition at 100 µM [3, 9]: 50%
- change of antimicrobial activity on decrease of concentration [3]: two-fold decrease in activity

Compound: C=C(C)C#C[C@@H]1C[C@H](O)[C@H](Cl)[C@@H](O)[C@H]1O (relative stereo) [Compound 2, Acrucipentyn B]
- effect on LDH release (in words) [4]: greatest effect; also recorded: significant activity
- effect on sortase A enzymatic activity (in words) [1]: inactive; also recorded: did not have any effect
- effect on biofilm formation, comparison in words [2]: did not show a significant effect
- inhibition at 100 µM [2]: 30%
- inhibition at 100 µM [3, 9]: ≤ 50%

Compound: C=C(C)C#C[C@@H]1C[C@@H](O)[C@@H](Cl)[C@H](O)[C@@H]1O [Compound 1, Acrucipentyn A]
- effect on LDH release (in words) [4]: greatest effect
- decrease of sortase A activity [1]: 18%
- inhibition of biofilm formation ([2]; concentrations of 12.5–100 μM, respectively): 50–70%
- antimicrobial effect against S. aureus, ranking in words [3]: most pronounced antimicrobial effects
- inhibition at 12.5 µM ([3]; Staphylococcus aureus, ATCC21027, 12.5 μM, read-out: antimicrobial activity (inhibition of S. aureus growth)): ≤ 50%
- inhibition at 100 µM [3, 9]: 60%

Compound: C=C(C)C#CC1=C[C@@H](O)[C@@H]2O[C@@H]2[C@@H]1O (relative stereo) [Compound 6, Acrucipentyn F]
- effect on sortase A enzymatic activity (in words) [1]: less significant effects
- concentration down to which a high level of inhibition of biofilm formation is kept [2]: 25 µM
- formation of biofilms (in words) [2]: almost absent
- antimicrobial effect against S. aureus, ranking in words [3]: most pronounced antimicrobial effects
- inhibition of S. aureus growth (in words) ([3]; 100 μM): almost completely inhibited
- change of antimicrobial activity on decrease of concentration [3]: halved

Compound: C=C(C)C#CC1=C[C@@H](O)[C@H](O)[C@@H](Cl)[C@@H]1O (relative stereo) [Compound 5, Acrucipentyn E]
- effect on LDH release (in words) [4]: greatest effect
- decrease of sortase A activity [1]: 21%
- effect on biofilm formation, comparison in words [2]: weaker inhibitory effect
- inhibition at 100 µM [2]: 30%
- inhibition at 100 µM [3, 9]: ≤ 50%

Compound: C=C(C)C#CC1=C[C@@H](O)[C@@H](Cl)[C@H](O)[C@@H]1O (relative stereo) [Compound 4, Acrucipentyn D]
- effect on LDH release (in words) [4]: greatest effect; also recorded: significant activity
- effect on sortase A enzymatic activity (in words) [1]: less significant effects
- formation of biofilms (in words) [2]: almost absent
- change of effect on biofilm formation when diluted twice ([2]; diluted twice from 100 μM): halved
- inhibition at 100 µM [3, 9]: ≤ 50%

Compound: flavuside B
- S. aureus growth (in words) [5]: able to inhibit
- sortase A enzymatic activity (in words) [6]: inhibitor of sortase A enzymatic activity
- protection of HaCaT keratinocytes in co-culture model (in words) [7]: protect HaCaT keratinocytes against S. aureus infection
- S. aureus biofilm formation (in words) [8]: able to inhibit
